Assay results from paper PMC6687188, “Novel lactate dehydrogenase inhibitors with in vivo efficacy against Cryptosporidium parvum” (PLoS Pathogens, 2019).
Starred links: 1 amine or outer side, 2 acyl side, 3 side chain; linkers in the order of their positions; H or OH if unused. Positions of bridges follow the written chain, without caps; N, C: chain ends. Non-standard residues stand in square brackets, D forms with d. Residues, ends and D or L forms follow the SMILES beside them. Chains are numbered I, II in the order given. Actinocin(1to9) = Cc1c2oc3c(C)ccc(C(=O)[*:2])c3nc-2c(C(=O)[*:1])c(N)c1=O; NMeV = CN[C@H](C(=O)O)C(C)C; Sar = CNCC(=O)O

target: recombinant CpLDH protein (Cryptosporidium parvum, UniProt Q9GT92, F198L/K295E/R251K)

SMILES | MEAN CpLDH INHIBITION (%)
CC1=C2C(=CO[C@H](C)[C@H]2C)C(=O)C(C(=O)O)=C1O [NSC186] | -47.49%
O=C1C(=O)c2ccccc2C(O)=C1CCCc1ccc(Oc2ccccc2)cc1 [NSC377] | -0.53%
CC(=O)[O][Hg].c1ccc2c(c1)ccc1ccccc12 [NSC534] | -63.87%
Nc1nc2n[nH]nc2c(=O)[nH]1 [NSC749] | -18.77%
O=C(O)c1ccc(NC(c2ccccc2)c2ccc3cccnc3c2O)cc1 (centres unmarked) [NSC1011] | -0.99%
NC1(C(=O)O)CCCC1 [NSC1026] | -29.26%
CC(C)(Br)C(=O)C(Br)Br [NSC1027] | -2.97%
c1coc(CNc2ncnc3[nH]ncc23)c1 [NSC1620] | -4.87%
C1CCNCC1.S=C(S)N1CCCCC1 [NSC1906] | -58.60%
Cc1cc(O)c(C(C)C)cc1C1(c2cc(C(C)C)c(O)cc2C)OC(=O)c2ccccc21 [NSC2186] | -64.59%
CC(C)C1(Cl)CCC2C3(C)CCCC(C)(C(=O)O)C3CC(Cl)C2(Cl)C1Cl (centres unmarked) [NSC2979] | -29.91%
O=Nc1ccc(O)c2ncccc12 [NSC3852] | -37.64%
c1ccc(-c2cccc(-c3ccccn3)n2)nc1 [NSC3905] | -48.97%
C1COCCN1.S=C(S)N1CCOCC1 [NSC4114] | -42.22%
Cc1ccc2ccc3ccc(C)nc3c2n1 [NSC4280] | -27.03%
C=C(C)[C@@H]1CC[C@]2(CO)CC[C@]3(C)[C@H](CC[C@@H]4[C@@]5(C)CC[C@H](O)C(C)(C)[C@@H]5CC[C@]43C)[C@@H]12 [NSC4644] | -25.29%
Nc1nncs1 [NSC4728] | -23.83%
O=[N+]([O-])c1ccc(N=Nc2c(O)[nH]c3ccccc23)c([N+](=O)[O-])c1 [NSC4810] | -33.40%
CCN(CC)C(=S)[S-].[Na+] [NSC4857] | -37.64%
CO[C@H]1[C@@H](O)[C@@H](C)O[C@H](O[C@H]2[C@H](Oc3cccc4c(O)c5c(=O)oc6ccc(C)c7c(=O)oc(c34)c5c67)O[C@H](C)[C@H](O)[C@@H]2O)[C@@H]1O [NSC5159] | -38.07%
Nc1nc(N)c(N=Nc2ccccc2)c(=O)[nH]1 [NSC5200] | -51.63%
Nc1ccccc1N [NSC5354] | 0%
CC(=O)c1c(O)c(C)c(O)c2c1OC1=CC(=O)C(C(C)=O)C(=O)C12C (centres unmarked) [NSC5890] | -32.64%
O=C1c2cccc(O)c2C(=O)c2c(O)cccc21 [NSC7210] | -48.97%
C[C@@H]1O[C@@H](O[C@@H]2C=C3CC[C@@H]4[C@H](CC[C@]5(C)[C@@H](c6ccc(=O)oc6)CC[C@]45O)[C@@]3(C)CC2)[C@H](O)[C@H](O)[C@H]1O[C@@H]1O[C@H](CO)[C@@H](O)[C@H](O)[C@H]1O [NSC7525] | -34.67%
CO[C@H]1C[C@H](O[C@H]2CC[C@]3(C=O)[C@H]4CC[C@]5(C)[C@@H](C6=CC(=O)OC6)CC[C@]5(O)[C@@H]4CC[C@]3(O)C2)O[C@H](C)[C@H]1O[C@@H]1O[C@H](CO[C@@H]2O[C@H](CO)[C@@H](O)[C@H](O)[C@H]2O)[C@@H](O)[C@H](O)[C@H]1O [NSC7530] | -3.24%

SMILES | MEAN CpLDH INHIBITION (%)
CC(=O)O[C@H]1C[C@H](O[C@H]2[C@@H](O)C[C@H](O[C@H]3[C@@H](O)C[C@H](O[C@H]4CC[C@@]5(C)[C@H](CC[C@@H]6[C@@H]5CC[C@]5(C)[C@@H](C7=CC(=O)OC7)CC[C@]65O)C4)O[C@@H]3C)O[C@@H]2C)O[C@H](C)[C@H]1O[C@@H]1O[C@H](CO)[C@@H](O)[C@H](O)[C@H]1O [NSC7532] | -151.91%
Nc1ccc(N)c2c1C(=O)c1ccccc1C2=O [NSC7833] | -11.00%
COc1ccc2nc(C)cc(NCCCCCCCCCNc3cc(C)nc4ccc(OC)cc34)c2c1 [NSC10010] | -19.54%
CC(C)=CC1C(C(=O)O)C1(C)C (centres unmarked) [NSC11779] | -22.15%
CC1=C(O)c2ccccc2C(=O)C1=O [NSC11897] | -2.25%
CC(C)=CCC1=C(O)c2ccccc2C(=O)C1=O [NSC11905] | -39.26%
COc1cccc2c1cc([N+](=O)[O-])c1c(C(=O)O)cc3c(c12)OCO3 [NSC11926] | -19.30%
CN(C)CCOc1ccc(I)cc1Cc1ccccc1.Cl [NSC11930] | -34.92%
O=c1c(Br)c(-c2ccccc2)[nH]c2ccccc12 [NSC12825] | -13.98%
Nc1ccc2c(c1)S(=O)(=O)c1cc(N)ccc1-2 [NSC13966] | -21.73%
Cc1cc2cc3cc(C)c(N)cc3nc2cc1N.Cl [NSC13973] | -3.43%
CC1=CC(O)C(O)C2(C)C1CC1OC(=O)C(O)C3C(C)C(O)C4(O)OCC13C42 (centres unmarked) [NSC14974] | 0.167%
O=[N+]([O-])[O-].O=[N+]([O-])[O-].O=[N+]([O-])[O-].[Ga+3] [NSC15200] | -34.76%
CC[C@H](C)[C@@H]1NC(=O)[C@@H](NC(=O)c2c3nc4c(C(=O)N[C@@H]5C(=O)N[C@@H](C(C)C)C(=O)N6CCC[C@H]6C(=O)N(C)CC(=O)N(C)[C@@H](C(C)C)C(=O)O[C@@H]5C)ccc(C)c4oc-3c(C)c(=O)c2N)[C@@H](C)OC(=O)[C@H](C(C)C)N(C)C(=O)CN(C)C(=O)[C@@H]2CCCN2C1=O [NSC18268] (I: TIP[Sar][NMeV] / II: TVP[Sar][NMeV]; ester I:1-I:C, II:1-II:C; linker I:N-II:N via Actinocin(1to9)) | -2.01%
CC(C)c1cccc(O)c(=O)c1 [NSC18804] | -36.91%
CC(C)c1ccc(O)c(=O)cc1 [NSC18805] | -40.28%
CN(C)CCCN1c2ccccc2Sc2ccc3ccccc3c21 [NSC18891] | -7.99%
CCCCCCCCCCCCC(O)C(=O)O (centres unmarked) [NSC18938] | -83.85%
CCN(CC)CCOc1ccc(C(O)(Cc2ccc(OC)cc2)c2ccccc2)cc1 (centres unmarked) [NSC19857] | -57.96%
COC(=O)[C@@H]1[C@H](O)[C@H](C)[C@H](O)[C@H](C)/C=C\C=C(/C)C(=O)Nc2c(C)c(OC(C)=O)c3c(c2O)C(=O)C(C)=C2OCOC(=C23)/C(C)=C/[C@@](C)(O)[C@H](O)[C@@H](C)[C@H]1O [NSC19990] | -27.23%
Nc1nc2c(ncn2[C@@H]2O[C@H](CO)[C@@H](O)[C@H]2O)c(=O)[nH]1 [NSC19994] | -14.24%
CCCCOCc1cc(CN2CCN(C)CC2)c(O)c2ncccc12 [NSC20514] | -30.20%
C[C@]12CC[C@@H]3c4ccccc4CC[C@H]3[C@@H]1CC[C@@H]2O [NSC22194] | -50.61%
C[C@H](CN(C)C)C(=O)c1ccccc1C(=O)O [NSC22992] | -3.61%
CN(CCc1ccccn1)c1ccc2c(c1)C(=O)c1ccccc1-2 [NSC24048] | -65.48%
CN(C)CCCN1c2ccc3ccccc3c2Sc2cccc(Cl)c21 [NSC24113] | -11.52%

SMILES | MEAN CpLDH INHIBITION (%)
COc1cc([C@@H]2c3cc4c(c(O)c3C[C@H]3COC(=O)[C@@H]32)OCO4)cc(OC)c1O [NSC24817] | -20.22%
COc1cc([C@@H]2c3cc4c(c(O)c3C[C@H]3COC(=O)[C@@H]32)OCO4)cc(OC)c1OC [NSC24819] | -66.99%
CC(C)C1=CC2=CC[C@@H]3[C@](C)(CCC[C@@]3(C)C(=O)O)[C@H]2CC1 [NSC25149] | -16.60%
OC(CN1CCCCC1)c1ccc(/C=C/c2ccc(Cl)cc2)cc1 (centres unmarked) [NSC26040] | -70.84%
O=C1Nc2c(Cl)cc(Cl)cc2C1=O [NSC26045] | -41.99%
OCC1OC(n2cnc3c(SCc4ccccc4)ncnc32)C(O)C1O (centres unmarked) [NSC26273] | -4.046%
Cc1c2ccc3ccccc3c2c[n+]2ccccc12.[Cl-] [NSC28002] | -26.04%
Cl.Nc1nc(N)c2ncn(-c3ccccc3)c2n1 [NSC29603] | -54.90%
O=C([O][Hg][CH2]C1COC([CH2][Hg][O]C(=O)c2ccccc2)CO1)c1ccccc1 (centres unmarked) [NSC30916] | -5.35%
Nc1ccc2nc3ccc(=O)cc-3n(-c3ccccc3)c2c1 [NSC31702] | -41.86%
NC(=O)NO [NSC32065] | -2.35%
CC(/C=N/N=C(N)N)=N\N=C(N)N [NSC32946] | -50.60%
COc1c(O[C@@H]2O[C@H](CO)[C@@H](O)[C@H](O)[C@H]2O)cc2c(c1OC)-c1ccc(OC)c(=O)cc1[C@@H](NC(C)=O)CC2 [NSC32992] | -5.35%
Oc1ccc(-c2nc3ccccc3s2)cc1 [NSC33004] | -8.80%
COc1cc2c(c(OC)c1OC)-c1ccc(OC)c(=O)cc1[C@@H](NC(=O)c1ccccc1)CC2 [NSC33410] | -43.24%
CCN1C=C/C(=C\C=C\c2cc[n+](CC)c3ccccc23)c2ccccc21.[I-] [NSC34391] | -25.08%
COc1c2c(c(OC)c3c1c(=O)c1ccccc1n3C)OCO2 [NSC34757] | -24.18%
O=C(C[n+]1ccc2ccccc2c1)c1ccc2ccc3ccccc3c2c1 [NSC35489] | -39.94%
Nc1nc(SCCc2ccccc2)c2[nH]cnc2n1 [NSC35866] | -7.39%
O=S1(=O)CCN(c2ccccc2CC(c2c[nH]c3ccccc23)c2c[nH]c3ccccc23)CC1 [NSC35949] | -34.03%
C=C1C(=O)OC2CC1C(OC(C)=O)C/C(C)=C/CC/C(C)=C\CCC2(C)O (centres unmarked) [NSC36437] | -19.06%
C[C@@H]1C[C@H]2OC(=O)[C@@]3(C)CCC[C@@](C)([C@@H]23)[C@@]1(O)CCc1ccoc1 [NSC36693] | -16.69%
Nc1nc(SCc2ccccc2Cl)c2[nH]cnc2n1 [NSC36826] | -1.63%
COc1nc(N)nc2nc[nH]c12 [NSC37364] | -36.91%
O=C1C(CN2CCCCC2)CCCC1CN1CCCCC1 (centres unmarked) [NSC39202] | -37.56%
